Assays:
Assay in all cases: Kinase inhibitor library screening, PrestoBlue cell viability, 1 or 10 μM, 72 h
IGR37 cells (parental) = test system: IGR37 cells (parental)
Experimental: (§1) After 72 h of treatment, cell viability was assessed using the PrestoBlue Cell Viability Reagent (ThermoFisher Scientific). Measurements were performed with the CLARIOstar Monochromator microplate reader (BMG Labtech).
(§2) Kinase inhibitor library screening. […] Each cell line was treated in its sensitive form (parental), and also as 2 resistant derivatives, which were made resistant to either Vemurafenib (XP) or Dabrafenib (GP). Drugs were added at 2 different concentrations, 1 and 10 μM, for 72 h and cell viability was assessed using the PrestoBlue Cell Viability assay. Results are depicted as % viability compared to untreated cells. Each cell line was analyzed at least in duplicate. […] (XLSX 95 kb)

[1] = test system: A375-GP cells (Dabrafenib-resistant)
Experimental: as §1, §2

[2] = test system: A375-XP cells (Vemurafenib-resistant)
Experimental: as §1, §2

[3] = test system: 501Mel-GP cells (Dabrafenib-resistant)
Experimental: as §1, §2

[4] = test system: 501Mel-XP cells (Vemurafenib-resistant)
Experimental: as §1, §2

A375 cells (parental) = test system: A375 cells (parental)
Experimental: as §1, §2

[5] = test system: IGR37-XP cells (Vemurafenib-resistant)
Experimental: as §1, §2

[6] = test system: IGR37-GP cells (Dabrafenib-resistant)
Experimental: as §1, §2

501Mel cells (parental) = test system: 501Mel cells (parental)
Experimental: as §1, §2

[7] = 501Mel Parental, 1μΜ, 72 h, in %
[8] = 501Mel Parental, 10μΜ, 72 h, in %

COC(=O)c1ccc2c(c1)NC(=O)/C2=C(\Nc1ccc(N(C)C(=O)CN2CCN(C)CC2)cc1)c1ccccc1 [BIBF1120 (Vargatef)]
cell viability (kinase inhibitor library screening) (IGR37 cells (parental); IGR37 Parental, 10μΜ, in %): 0.645 | cell viability (kinase inhibitor library screening) ([1]; A375 GP, 10μΜ, in %): 1.1 | cell viability (kinase inhibitor library screening) ([2]; A375 XP, 1μΜ, in %): 103.7 | cell viability (kinase inhibitor library screening) ([2]; A375 XP, 10μΜ, in %): 1.7 | cell viability (kinase inhibitor library screening) ([3]; 501Mel GP, 1μΜ, in %): 90.5 | cell viability (kinase inhibitor library screening) ([3]; 501Mel GP, 10μΜ, in %): -0.1 | cell viability (kinase inhibitor library screening) ([4]; 501Mel XP, 1μΜ, in %): 90.7 | cell viability (kinase inhibitor library screening) ([4]; 501Mel XP, 10μΜ, in %): -0.28 | cell viability (kinase inhibitor library screening) (A375 cells (parental); A375 Parental, 1μΜ, in %): 104.6 | cell viability (kinase inhibitor library screening) (A375 cells (parental); A375 Parental, 10μΜ, in %): 2.3 | cell viability (kinase inhibitor library screening) ([5]; IGR37 XP, 1μΜ, in %): 100.3 | cell viability (kinase inhibitor library screening) ([5]; IGR37 XP, 10μΜ, in %): 1.9 | cell viability (kinase inhibitor library screening) ([6]; IGR37 GP, 1μΜ, in %): 97.0 | cell viability (kinase inhibitor library screening) ([6]; IGR37 GP, 10μΜ, in %): 1.4 | cell viability (kinase inhibitor library screening) (501Mel cells (parental); 501Mel Parental, 1μΜ, in %): 103.8 | cell viability (kinase inhibitor library screening) (501Mel cells (parental); 501Mel Parental, 10μΜ, in %): 0.6

Cc1ccc(-n2nc(C(C)(C)C)cc2NC(=O)Nc2ccc(OCCN3CCOCC3)c3ccccc23)cc1 [BIRB 796 (Doramapimod)]
Cell viability in kinase inhibitor library screening, IGR37 Parental, 10μΜ (IGR37 cells (parental); IGR37 Parental, 10μΜ, 72 h, in %): 97.2 | Cell viability in kinase inhibitor library screening, A375 GP, 1μΜ ([1]; A375 GP, 1μΜ, 72 h): 103.9 | Cell viability in kinase inhibitor library screening, A375 GP, 10μΜ ([1]; A375 GP, 10μΜ, 72 h): 76.2 | Cell viability in kinase inhibitor library screening, A375 XP, 10μΜ ([2]; A375 XP, 10μΜ, 72 h): 85.3 | Cell viability in kinase inhibitor library screening, 501Mel GP, 1μΜ ([3]; 501Mel GP, 1μΜ, 72 h, in %): 105.5 | Cell viability in kinase inhibitor library screening, 501Mel GP, 10μΜ ([3]; 501Mel GP, 10μΜ, 72 h, in %): 94.6 | Cell viability in kinase inhibitor library screening, 501Mel XP, 1μΜ ([4]; 501Mel XP, 1μΜ, 72 h, in %): 98.8 | Cell viability in kinase inhibitor library screening, 501Mel XP, 10μΜ ([4]; 501Mel XP, 10μΜ, 72 h, in %): 86.9 | Cell viability in kinase inhibitor library screening, A375 Parental, 10μΜ (A375 cells (parental); A375 Parental, 10μΜ, 72 h): 86.4 | Cell viability in kinase inhibitor library screening, A375 Parental, 1μΜ (A375 cells (parental); A375 Parental, 1μΜ, 72 h): 99.9 | Cell viability in kinase inhibitor library screening, IGR37 XP, 10μΜ ([5]; IGR37 XP, 10μΜ, 72 h): 71.3% | Cell viability in kinase inhibitor library screening, IGR37 XP, 1μΜ ([5]; IGR37 XP, 1μΜ, 72 h, in %): 94.7 | Cell viability in kinase inhibitor library screening, IGR37 GP, 10μΜ ([6]; IGR37 GP, 10μΜ, 72 h): 78.5% | Cell viability in kinase inhibitor library screening, IGR37 GP, 1μΜ ([6]; IGR37 GP, 1μΜ, 72 h, in %): 89.9 | Cell viability in kinase inhibitor library screening, 501Mel Parental, 1μΜ (501Mel cells (parental); [7]): 96.5 | Cell viability in kinase inhibitor library screening, 501Mel Parental, 10μΜ (501Mel cells (parental); [8]): 84.9

CN(C)Cc1cccc(N/C(=C2\C(=O)Nc3cc(C(N)=O)ccc32)c2ccccc2)c1 [BIX 02188]
viability at 1 µM (IGR37 cells (parental); Homo sapiens, IGR-37, 72 h, read-out: cell viability, IGR37 Parental, 1μΜ): 99.2% | viability at 10 µM (IGR37 cells (parental); Homo sapiens, IGR-37, 72 h, read-out: cell viability, IGR37 Parental, 10μΜ): 109% | viability at 1 µM ([1]; Homo sapiens, A-375, 72 h, read-out: cell viability, A375 GP, 1μΜ): 103% | viability at 10 µM ([1]; Homo sapiens, A-375, 72 h, read-out: cell viability, A375 GP, 10μΜ): 85.4% | viability at 1 µM ([2]; Homo sapiens, A-375, 72 h, read-out: cell viability, A375 XP, 1μΜ): 103% | viability at 10 µM ([2]; Homo sapiens, A-375, 72 h, read-out: cell viability, A375 XP, 10μΜ): 98.5% | viability at 1 µM ([3]; Homo sapiens, 72 h, read-out: cell viability, 501Mel GP, 1μΜ): 104% | viability at 10 µM ([3]; Homo sapiens, 72 h, read-out: cell viability, 501Mel GP, 10μΜ): 96.3% | viability at 1 µM ([4]; Homo sapiens, 72 h, read-out: cell viability, 501Mel XP, 1μΜ): 96.7% | viability at 10 µM ([4]; Homo sapiens, 72 h, read-out: cell viability, 501Mel XP, 10μΜ): 86.6% | viability at 1 µM (A375 cells (parental); Homo sapiens, A-375, 72 h, read-out: cell viability, A375 Parental, 1μΜ): 103% | viability at 10 µM (A375 cells (parental); Homo sapiens, A-375, 72 h, read-out: cell viability, A375 Parental, 10μΜ): 95.5% | viability at 1 µM ([5]; Homo sapiens, IGR-37, 72 h, read-out: cell viability, IGR37 XP, 1μΜ): 107% | viability at 10 µM ([5]; Homo sapiens, IGR-37, 72 h, read-out: cell viability, IGR37 XP, 10μΜ): 71.5% | viability at 1 µM ([6]; Homo sapiens, IGR-37, 72 h, read-out: cell viability, IGR37 GP, 1μΜ): 91% | viability at 10 µM ([6]; Homo sapiens, IGR-37, 72 h, read-out: cell viability, IGR37 GP, 10μΜ): 93.3% | viability at 1 µM (501Mel cells (parental); Homo sapiens, 72 h, read-out: cell viability, 501Mel Parental, 1μΜ): 95.5% | viability at 10 µM (501Mel cells (parental); Homo sapiens, 72 h, read-out: cell viability, 501Mel Parental, 10μΜ): 91.7%

CN(C)Cc1cccc(N/C(=C2\C(=O)Nc3cc(C(=O)N(C)C)ccc32)c2ccccc2)c1 [BIX 02189]
cell viability, IGR37 Parental, 1μΜ (IGR37 cells (parental); IGR37 Parental, 1μΜ, 72 h, in %): 100.1 | cell viability, A375 GP, 1μΜ ([1]; A375 GP, 1μΜ, 72 h, in %): 99.5 | cell viability, A375 GP, 10μΜ ([1]; A375 GP, 10μΜ, 72 h, in %): 79.8 | cell viability, A375 XP, 1μΜ ([2]; A375 XP, 1μΜ, 72 h, in %): 99.2 | cell viability, A375 XP, 10μΜ ([2]; A375 XP, 10μΜ, 72 h, in %): 88.6 | cell viability, 501Mel GP, 10μΜ ([3]; 501Mel GP, 10μΜ, 72 h, in %): 90.2 | cell viability, 501Mel XP, 1μΜ ([4]; 501Mel XP, 1μΜ, 72 h, in %): 98.8 | cell viability, 501Mel XP, 10μΜ ([4]; 501Mel XP, 10μΜ, 72 h, in %): 82.6 | cell viability, A375 Parental, 10μΜ (A375 cells (parental); A375 Parental, 10μΜ, 72 h, in %): 86.5 | cell viability, IGR37 XP, 10μΜ ([5]; IGR37 XP, 10μΜ, 72 h): 54.9% | cell viability, IGR37 XP, 1μΜ ([5]; IGR37 XP, 1μΜ, 72 h, in %): 96.6 | cell viability, IGR37 GP, 10μΜ ([6]; IGR37 GP, 10μΜ, 72 h): 85.5% | cell viability, IGR37 GP, 1μΜ ([6]; IGR37 GP, 1μΜ, 72 h, in %): 92.6 | cell viability, 501Mel Parental, 1μΜ (501Mel cells (parental); [7]): 89.4 | cell viability, 501Mel Parental, 10μΜ (501Mel cells (parental); [8]): 89.0
